“And” between values parts separate entries of the source, which are not always exact repeats. Equal values may be shown once.
Tests used:
[1] = tested on: VSV pseudo typed with SARS-CoV2 Spike protein (rVSG-dG 2019-CoV-2-18AA S); assay type: cell-based
virus = settings: cited from earlier work
Human coronavirus 229E = assay type: cell-based; settings: 10 min pre-treatment with 10 μg/mL

Substance | FIC of the single agent within the combination [1] | reported effect by itself on virus inhibition (antiviral concentration) (virus) | human coronavirus 229E binding and replication in the MRC-5 cell line (Human coronavirus 229E; SEM) | viral entry and cytopathic effects caused by the virus (Human coronavirus 229E; after 48 hours of incubation, compared to controls) | cytotoxicity (MRC-5 cells)
copper | 0.10 and 0.07 | 300 µg/mL |  |  | 
ethyl-N-alpha-lauroyl-L-arginate HCl [ELAH] | 0.10 | 300 µg/mL | inhibited | reduces | non-cytotoxic

Source: patent US20220133783A1 (priority 2020, published 2022)
